Measurements taken from patent US20250034147A1, “MDM2 DEGRADERS AND USES THEREOF” (Kymera Therapeutics, Inc., priority 2021, published 2025).
pIC50: −log10 of the molar value.

What was measured:
HiBiT-tagged MDM2 = biological target: T1, HiBiT-tagged MDM2 (Homo sapiens, UniProt Q00987); test: MDM2 HiBit HEK293T degradation; format: cell-based; settings: HEK293T cells stably expressing C-terminally HiBiT-tagged MDM2; 4 h; read-out: MDM2 HiBit HEK293T degradation 4 h: Average external-Abs DC50
T1 construct: expressed in transfected cells
Method in brief: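 Degradation was measured in HEK293T cells stably expressing C-terminally HiBiT-tagged MDM2, a pool selected with 1 microgram/ml puromycin. A MDM2 tool degrader and HaloPROTAC3 served as positive controls. Potency is reported as DC50 in letter bins.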

RS411 cells = test: Cell Viability CTG Assay; format: cell-based; settings: Homo sapiens, RS4-11, CellTiter Glo (CTG) cell viability, read-out: Average external-IC50
Experimental: Compounds or DMSO 60 nL were stamped to the cell plate as the platemap. RS411 cells were centrifuged at 800 rpm for 5 min, suspended with culture medium, and counted with Countess (Invitrogen). The cell density was adjusted to the recommend information. 30 μL of cell solution (1000 cells/well) was added to the assay plate as the platemap and 30 μL of media was added to column 2 and column 23 as the platemap. The plate was spun down briefly. The final concentration of the compounds started at 10 μM (3 fold dilution and 11 doses) and final DMSO concentration was 0.2%. The plate was spun down briefly and incubated at 37° C., 5% CO2 for 1 day. […] 30 μL CellTiter Glo reagent was added to each well and the plate was centrifuged at 1000 rpm for 30 sec. The plate was shaken for 1 min and centrifuged at 1000 rpm for 30 sec. The plate was incubated at RT for 10 min to stabilize the luminescent signal and the luminescence was read by EnVision.
The letter codes for IC50 indicate the concentration of compound required to affect 50% of cells: A (<0.005 μM), B (0.005-0.05 μM), C (0.05-0.5 μM), and D (>0.5 μM).

T1 sequence (Q00987 whole entry): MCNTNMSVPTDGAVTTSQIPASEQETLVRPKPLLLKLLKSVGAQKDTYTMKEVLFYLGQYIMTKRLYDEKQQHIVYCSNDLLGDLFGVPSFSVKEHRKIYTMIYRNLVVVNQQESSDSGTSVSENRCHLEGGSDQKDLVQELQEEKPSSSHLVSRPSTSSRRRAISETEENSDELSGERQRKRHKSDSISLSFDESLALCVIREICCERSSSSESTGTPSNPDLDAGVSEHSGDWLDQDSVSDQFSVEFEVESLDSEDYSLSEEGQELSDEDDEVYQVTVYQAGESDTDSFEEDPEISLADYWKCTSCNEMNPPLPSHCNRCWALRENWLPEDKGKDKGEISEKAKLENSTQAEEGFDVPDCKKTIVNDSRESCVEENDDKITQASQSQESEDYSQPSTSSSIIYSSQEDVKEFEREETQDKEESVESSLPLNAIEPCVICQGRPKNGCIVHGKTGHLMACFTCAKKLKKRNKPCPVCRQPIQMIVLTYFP

Compound | DC50 (HiBiT-tagged MDM2) [µM] | pIC50 (RS411 cells)
Cn1c(=O)n(C2CCC(=O)NC2=O)c2ccc(CCCN3CCN(C(=O)[C@H]4CC[C@H](NC(=O)[C@@H]5NC6(CCCCC6)[C@@]6(C(=O)Nc7cc(Cl)ccc76)[C@H]5c5cccc(Cl)c5F)CC4)CC3)cc21 (stereo partly drawn) [I-30] | < 0.01 | > 8.30
CC1(C)CCC2(CC1)NC(C(=O)N[C@H]1CC[C@H](CN3CCN(CCC#Cc4ccn5c(N6CCC(=O)NC6=O)cnc5c4)CC3)CC1)[C@H](c1ccnc(Cl)c1F)[C@]21C(=O)Nc2cc(Cl)ccc21 (stereo partly drawn) [I-7] | < 0.01 | 7.30 to 8.30
O=C1CCN(c2cnc3c(C4CCN(C(=O)[C@H]5CC[C@H](NC(=O)[C@@H]6NC7(CCCCC7)[C@@]7(C(=O)Nc8cc(Cl)ccc87)[C@H]6c6cccc(Cl)c6F)CC5)CC4)cccn23)C(=O)N1 [I-45] | < 0.01 | 7.30 to 8.30
O=C1CCC(n2c(=O)n(CCP(=O)(O)O)c3cc(C4CCN(C(=O)[C@H]5CC[C@H](NC(=O)[C@@H]6NC7(CCCCC7)[C@@]7(C(=O)Nc8cc(Cl)ccc87)[C@H]6c6cccc(Cl)c6F)CC5)CC4)ccc32)C(=O)N1 (stereo partly drawn) [I-40] | 0.01 to 0.1 | 6.30 to 7.30
Cn1c(=O)n(C2CCC(=O)NC2=O)c2ccc(N3CC(N4CCN(C(=O)[C@H]5CC[C@H](NC(=O)[C@@H]6NC7(CCCCC7)[C@@]7(C(=O)Nc8cc(Cl)ccc87)[C@H]6c6cccc(Cl)c6F)CC5)CC4)C3)cc21 (stereo partly drawn) [I-19] | < 0.01 | 7.30 to 8.30
O=C(N[C@H]1CC[C@H](CN2CCC(CCCCCC3CCN(C[C@H]4CC[C@H](NC(=O)[C@@H]5NC6(CCCCC6)[C@@]6(C(=O)Nc7cc(Cl)ccc76)[C@H]5c5cccc(Cl)c5F)CC4)CC3)CC2)CC1)[C@@H]1NC2(CCCCC2)[C@@]2(C(=O)Nc3cc(Cl)ccc32)[C@H]1c1cccc(Cl)c1F [I-87] | > 1 | < 6.30
CN1CCN(C[C@H]2CC[C@H](NC(=O)[C@@H]3NC4(CCCCC4)[C@@]4(C(=O)Nc5cc(Cl)ccc54)[C@H]3c3cccc(Cl)c3F)CC2)C[C@@H]1CCc1ccc2c(c1)n(C)c(=O)n2C1CCC(=O)NC1=O (stereo partly drawn) [I-13] | < 0.01 | > 8.30
Cn1c(=O)n(C2CCC(=O)NC2=O)c2ccc(C3CN(C[C@H]4CC[C@H](NC(=O)[C@@H]5NC6(CCCCC6)[C@@]6(C(=O)Nc7cc(Cl)ccc76)[C@H]5c5cccc(Cl)c5F)CC4)C3)cc21 (stereo partly drawn) [I-24] | < 0.01 | > 8.30
CN1[C@@H](C(=O)N[C@H]2CC[C@H](CN3CCC(c4ccc5c(c4)n(C)c(=O)n5C4CCC(=O)NC4=O)CC3)CC2)[C@H](c2cccc(Cl)c2F)[C@]2(C(=O)Nc3cc(Cl)ccc32)C12CCCCC2 (stereo partly drawn) [I-17] | < 0.01 | > 8.30
COc1cc2c(cc1OC(C)C)[C@H](c1ccc(Cl)cc1)N(c1ccc(N(C)CC(=O)N3CCN(CCCCCCc4ccc5c(c4)n(C)c(=O)n5C4CCC(=O)NC4=O)CC3)cc1)C(=O)C2 (stereo partly drawn) [I-48] | > 1 | < 6.30
Cn1c(=O)n(C2CCC(=O)NC2=O)c2ccc(CN3CCC(OC4CCN(Cc5ccc(NC(=O)[C@@H]6NC7(CCCCC7)[C@@]7(C(=O)Nc8cc(Cl)ccc87)[C@H]6c6cccc(Cl)c6F)cc5)CC4)CC3)cc21 (stereo partly drawn) [I-10] | < 0.01 | > 8.30
Cn1c(=O)n(C2CCC(=O)NC2=O)c2ccc(N3CCC(OC4CCN(C[C@H]5CC[C@H](NC(=O)[C@@H]6NC7(CCCCC7)[C@@]7(C(=O)Nc8cc(Cl)ccc87)[C@H]6c6cccc(Cl)c6F)CC5)CC4)CC3)cc21 (stereo partly drawn) [I-18] | < 0.01 | > 8.30
Cn1c(=O)n(C2CCC(=O)NC2=O)c2ccc(N3CC4(CCN(C[C@H]5CC[C@H](NC(=O)[C@@H]6NC7(CCCCC7)[C@@]7(C(=O)Nc8cc(Cl)ccc87)[C@H]6c6cccc(Cl)c6F)CC5)CC4)C3)cc21 (stereo partly drawn) [I-16] | < 0.01 | > 8.30
Cn1c(=O)n(C2CCC(=O)NC2=O)c2ccc(C3CCN(C(=O)[C@@H]4CC[C@@H](NC(=O)[C@@H]5NC6(CCCCC6)[C@@]6(C(=O)Nc7cc(Cl)ccc76)[C@H]5c5cccc(Cl)c5F)CO4)CC3)cc21 (stereo partly drawn) [I-37] | < 0.01 | > 8.30

More lines, now with the values ahead:

DC50 (HiBiT-tagged MDM2) [µM] | pIC50 (RS411 cells) | Compound
0.01 to 0.1 | > 8.30 | COc1cc2c(cc1OC(C)C)[C@H](c1ccc(Cl)cc1)N(c1ccc(N(C)CC3CCN(CCCc4ccc5c(c4)n(C)c(=O)n5C4CCC(=O)NC4=O)CC3)cc1)C(=O)C2 (stereo partly drawn) [I-53]
0.1 to 1 | < 6.30 | COc1cc2c(cc1OC(C)C)[C@H](c1ccc(Cl)cc1)N(c1ccc(N(C)C[C@H]3CC[C@H](N(CC(=O)O)C(=O)CCCCc4ccc5c(c4)n(C)c(=O)n5C4CCC(=O)NC4=O)CC3)cc1)C(=O)C2 (stereo partly drawn) [I-93]
0.1 to 1 | < 6.30 | CCOc1ccc2c(c1)NC(=O)[C@]21[C@@H](c2cccc(Cl)c2F)[C@H](C(=O)N[C@H]2CC[C@H](CN3CCC(c4ccc5c(c4)n(C)c(=O)n5C4CCC(=O)NC4=O)CC3)CC2)NC12CCCCC2 (stereo partly drawn) [I-95]
< 0.01 | > 8.30 | Cn1c(=O)n(C2CCC(=O)NC2=O)c2ccc(CCN3CCN(CCCN4CCC(NC(=O)[C@@H]5NC6(CCCCC6)[C@@]6(C(=O)Nc7cc(Cl)ccc76)[C@H]5c5cccc(Cl)c5F)CC4)CC3)cc21 (stereo partly drawn) [I-78]
< 0.01 | < 6.30 | CCCc1ccc2c(c1)NC(=O)[C@]21[C@@H](c2cccc(Cl)c2F)[C@H](C(=O)N[C@H]2CC[C@H](CN3CCC(c4ccc5c(c4)n(C)c(=O)n5C4CCC(=O)NC4=O)CC3)CC2)NC12CCCCC2 (stereo partly drawn) [I-79]
< 0.01 | 7.30 to 8.30 | Cn1c(=O)n(C2CCC(=O)NC2=O)c2ccc(CN3CCC(OC4CN(C[C@H]5CC[C@H](NC(=O)[C@@H]6NC7(CCCCC7)[C@@]7(C(=O)Nc8cc(Cl)ccc87)[C@H]6c6cccc(Cl)c6F)CC5)C4)CC3)cc21 (stereo partly drawn) [I-49]
> 1 | < 6.30 | Cn1c(=O)n(C2CCC(=O)NC2=O)c2ccc(C3CCN(C[C@H]4CC[C@H](NC(=O)[C@@H]5NC6(CCCCC6)[C@@]6(C(=O)Nc7cc(CC8CC8)ccc76)[C@H]5c5cccc(Cl)c5F)CC4)CC3)cc21 (stereo partly drawn) [I-94]
0.01 to 0.1 | 7.30 to 8.30 | O=C(O)CCn1c(=O)n(C2CCC(=O)NC2=O)c2ccc(C3CCN(C(=O)[C@H]4CC[C@H](NC(=O)[C@@H]5NC6(CCCCC6)[C@@]6(C(=O)Nc7cc(Cl)ccc76)[C@H]5c5cccc(Cl)c5F)CC4)CC3)cc21 (stereo partly drawn) [I-82]
< 0.01 | 7.30 to 8.30 | CN(CCc1ccc2c(c1)n(C)c(=O)n2C1CCC(=O)NC1=O)CCN(C)C(=O)[C@H]1CC[C@H](NC(=O)[C@@H]2NC3(CCCCC3)[C@@]3(C(=O)Nc4cc(Cl)ccc43)[C@H]2c2cccc(Cl)c2F)CC1 (stereo partly drawn) [I-89]
0.01 to 0.1 | < 6.30 | Cc1ccc2c(c1)NC(=O)[C@]21[C@@H](c2cccc(C)c2F)[C@H](C(=O)N[C@H]2CC[C@H](C(=O)N3CCN(CCCc4ccc5c(c4)n(C)c(=O)n5C4CCC(=O)NC4=O)CC3)CC2)NC12CCCCC2 (stereo partly drawn) [I-55]
< 0.01 | > 8.30 | Cn1c(=O)n(C2CCC(=O)NC2=O)c2ccc(CCCN3CCN(C[C@H]4CC[C@H](NC(=O)[C@@H]5NC6(CCC(C)(C)CC6)[C@@]6(C(=O)Nc7cc(Cl)ccc76)[C@H]5c5cccc(Cl)c5F)CC4)CC3)cc21 (stereo partly drawn) [I-72]
< 0.01 | < 6.30 | CCOc1ccc2c(c1)NC(=O)C21[C@@H](c2cccc(Cl)c2F)[C@H](C(=O)N[C@H]2CC[C@H](C(=O)C3CCN(CCCc4ccc5c(c4)n(C)c(=O)n5C4CCC(=O)NC4=O)CC3)CC2)NC12CCCCC2 (stereo partly drawn) [I-96]
< 0.01 | 7.30 to 8.30 | Cn1c(=O)n(C2CCC(=O)NC2=O)c2ccc(CN3CC(OC4CN(C[C@H]5CC[C@H](NC(=O)[C@@H]6NC7(CCCCC7)[C@@]7(C(=O)Nc8cc(Cl)ccc87)[C@H]6c6cccc(Cl)c6F)CC5)C4)C3)cc21 (stereo partly drawn) [I-59]
